# In patent publication US20050032873A1, “3-Amino chroman and 2-amino tetralin derivatives” (Wyeth, priority 2003, published 2005):
# Where two headings read alike, the source gives them in different places.
# Key:
# serotonin transporter = biological target: T1, serotonin transporter (Rattus norvegicus, UniProt P31652); experiment: 5-HT transporter affinity: displacement of 3H-paroxetine from male rat cortical membranes; assay type: binding; conditions: displacement of 3H-paroxetine, male rat cortical membranes
# T1 construct: displace ^3H-paroxetine from male rat cortical membranes; from tissue; host or cells: male rat cortical membranes
# [1] = biological target: T2, cloned human 5-HT1A receptors (Homo sapiens, UniProt P08908); experiment: 35S-GTPγS binding assay, 5-HT1A function; assay type: biochemical; conditions: for EC50: agonist potency; for IC50: antagonist potency, reversal of 8-OH-DPAT, read-out: 5-HT1A Function GTPγS IC50
# T2 construct: expressed in transfected cells
# T2 sequence (P08908 1-422): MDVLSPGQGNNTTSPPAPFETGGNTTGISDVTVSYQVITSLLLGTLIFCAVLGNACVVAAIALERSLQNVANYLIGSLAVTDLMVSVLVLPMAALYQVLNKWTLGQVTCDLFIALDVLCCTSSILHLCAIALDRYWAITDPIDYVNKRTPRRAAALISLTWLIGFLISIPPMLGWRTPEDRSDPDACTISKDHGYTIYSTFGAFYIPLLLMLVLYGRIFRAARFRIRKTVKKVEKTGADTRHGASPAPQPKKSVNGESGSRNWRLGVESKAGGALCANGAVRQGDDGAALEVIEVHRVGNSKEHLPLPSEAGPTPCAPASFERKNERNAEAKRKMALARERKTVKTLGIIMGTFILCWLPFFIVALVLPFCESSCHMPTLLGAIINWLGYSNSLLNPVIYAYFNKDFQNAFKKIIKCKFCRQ
# From the text: The agonist or antagonist activity at 5-HT1A receptors was established by using two different assays. […] Agonists produce an increase in binding whereas antagonists produce no increase but rather reverse the effects of the standard agonist 8-OH-DPAT. The test compound's maximum stimulatory effect is represented as the Emax, while its potency is defined by the EC50. The test compound's maximum inhibitory effect is represented as the Imax, while its potency is defined by the IC50. The second assay measured cAMP accumulation upon binding of the ligand to the 5-HT1A receptor. […] The test compound's maximum stimulatory or inhibitory effect is represented as the Emax while its potency is defined by either IC50 for an antagonist or EC50 for an agonist. [^3H]-8-OH-DPAT was used to determine maximum agonist or antagonist response in both functional assays.
# 5-HT1A receptor [2] = biological target: T3, 5-HT1A receptor (Homo sapiens, UniProt P08908); experiment: 5-HT1A receptor affinity: displacement of [3H] 8-OH-DPAT; assay type: binding; set-up: expressed in transfected cells; conditions: for inhibition at 1 µM: read-out: 5-HT1A Receptor Affinity, % @ 1 μM; for Ki: displacement of [3H] 8-OH-DPAT, CHO cells stably transfected with human 5-HT1A receptors, read-out: 5-HT1A Receptor Affinity Ki
# T3 sequence (P08908 1-422): T2 sequence (P08908 1-422)
# 5-HT1A receptor [3] = biological target: T3, 5-HT1A receptor; experiment: cAMP accumulation assay, 5-HT1A function; assay type: cell-based; conditions: for Emax / 5-HT1A Function cAMP (Emax): in brackets after EC50 or IC50; for Emax: read-out: 5-HT1A Function cAMP (Emax); for EC50: cells marked EC50 (agonist)
# [4] = 5-HT Transporter Affinity Ki (nM)
# [5] = maximum stimulatory effect, in brackets after EC50, read-out: 5-HT1A Function GTPγS (Emax)
# [6] = read-out: 5-HT Transporter Affinity Ki
# [7] = maximum inhibitory effect, in brackets after IC50
# [8] = maximum inhibitory effect, in brackets after IC50, read-out: 5-HT1A Function GTPγS (Imax)
# T1 sequence (P31652 whole entry): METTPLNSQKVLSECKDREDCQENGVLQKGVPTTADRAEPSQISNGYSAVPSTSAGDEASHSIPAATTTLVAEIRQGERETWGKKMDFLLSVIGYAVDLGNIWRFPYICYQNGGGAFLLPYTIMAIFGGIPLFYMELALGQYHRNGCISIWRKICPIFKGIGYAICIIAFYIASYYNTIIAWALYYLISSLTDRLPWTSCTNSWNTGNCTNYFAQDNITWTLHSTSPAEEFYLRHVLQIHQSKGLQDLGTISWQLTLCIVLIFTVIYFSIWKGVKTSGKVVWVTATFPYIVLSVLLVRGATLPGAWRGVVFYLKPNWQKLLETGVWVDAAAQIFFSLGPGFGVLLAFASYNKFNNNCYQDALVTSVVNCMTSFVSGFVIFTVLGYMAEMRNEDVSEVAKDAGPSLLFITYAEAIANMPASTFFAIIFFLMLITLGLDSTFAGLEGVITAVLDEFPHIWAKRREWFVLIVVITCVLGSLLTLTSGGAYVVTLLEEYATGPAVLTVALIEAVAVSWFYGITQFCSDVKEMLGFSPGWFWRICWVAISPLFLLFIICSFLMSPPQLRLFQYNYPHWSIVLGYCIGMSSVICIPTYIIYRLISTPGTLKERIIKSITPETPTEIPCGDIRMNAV
compound,measurement,setting,value
"COc1cccc2c1CC(N[C@H]1CC[C@@H](c3c[nH]c4ccc(C#N)cc43)CC1)CO2 (relative stereo) [Compound 180a, 3-[(1,4-cis)-4-(5-Methoxy-chroman-3-ylamino)-cyclohexyl]-1H-indole-5-carbonitrile]",Ki,serotonin transporter; [4],13 nM
same,EC50,[1],4.23 µM
same,Emax,[1]; [5],100%
same,inhibition at 1 µM,5-HT1A receptor [2],19%
"COc1cccc2c1CC(N[C@H]1CC[C@H](c3c[nH]c4ccc(C#N)cc43)CC1)CO2 (relative stereo) [Compound 180b, 3-[(1,4-trans)-4-(5-Methoxy-chroman-3-ylamino)-cyclohexyl]-1H-indole-5-carbonitrile]",Ki,serotonin transporter; [4],2.46 nM
same,EC50,[1],0.925 µM
same,Emax,[1]; [5],50.5%
same,inhibition at 1 µM,5-HT1A receptor [2],20%
"COc1cccc2c1CC(N[C@H]1CC[C@@H](c3c[nH]c4ccc(F)cc43)CC1)CO2 (relative stereo) [Compound 181a, cis-N-[4-(5-fluoro-1H-indol-3-yl)cyclohexyl]-5-methoxychroman-3-amine]",Ki,serotonin transporter; [6],26 nM
same,EC50,[1],40 µM
same,Emax,[1]; [5],79.4%
same,inhibition at 1 µM,5-HT1A receptor [2],37%
"CCCN(C(C)CCc1c[nH]c2ccc(F)cc12)C1COc2c(F)ccc(C(N)=O)c2C1 (single isomer, unassigned) [Compound 12d, 8-fluoro-3-[[3-(5-fluoro-1H-indol-3-yl)-1-methylpropyl](propyl)amino]-3,4-dihydro-2H-chromene-5-carboxamide]",Ki,serotonin transporter; [6],152 nM
same,IC50,[1],6 µM
same,5-HT1A Function GTPγS (Imax),[1]; [7],13%
"CCCN(C(C)CCc1c[nH]c2ccc(C#N)cc12)C1COc2c(F)ccc(C(N)=O)c2C1 (single isomer, unassigned) [Compound 13d, 3-[[3-(5-cyano-1H-indol-3-yl)-1-methylpropyl](propyl)amino]-8-fluoro-3,4-dihydro-2H-chromene-5-carboxamide]",Ki,serotonin transporter; [6],112 nM
"CC(CCc1c[nH]c2c(F)cc(F)cc12)N(CC1CC1)C1COc2c(F)ccc(C(N)=O)c2C1 (single isomer, unassigned) [Compound 154b, 3-{(cyclopropylmethyl)[3-(5,7-difluoro-1H-indol-3-yl)-1-methylpropyl]amino}-8-fluorochromane-5-carboxamide]",Ki,serotonin transporter; [6],217 nM
same,Ki,5-HT1A receptor [2],88.2 nM
"NC(=O)c1ccc(F)c2c1CC(N(CCCc1c[nH]c3ccc(F)cc13)C1CCC1)CO2 (single isomer, unassigned; (+)) [Compound 4a, (+)-3-{cyclobutyl[3-(5-fluoro-1H-indol-3-yl)propyl]amino}-8-fluorochromane-5-carboxamide]",Ki,serotonin transporter; [6],4.93 nM
same,Emax,5-HT1A receptor [3],0%
"NC(=O)c1ccc(F)c2c1CC(N(CCCc1c[nH]c3ccc(F)cc13)CC1CC1)CO2 (single isomer, unassigned; (+)) [Compound 5b, (+)-3-{(cyclopropylmethyl)[3-(5-fluoro-1H-indol-3-yl)propyl]amino}-8-fluorochromane-5-carboxamide]",Ki,serotonin transporter; [6],3.7 nM
same,5-HT1A Function GTPγS (Imax),[1]; [7],82%
same,Emax,[1]; [5],18%
same,5-HT1A Function cAMP (Emax),5-HT1A receptor [3],69%
"NC(=O)c1ccc(F)c2c1CC(NCCCc1c[nH]c3ccc(F)cc13)CO2 (single isomer, unassigned; (-)) [Compound 1b, (−)-8-fluoro-3-{[3-(5-fluoro-1H-indol-3-yl)propyl]amino}chromane-5-carboxamide]",Ki,serotonin transporter; [6],76 nM
same,inhibition at 1 µM,5-HT1A receptor [2],47%
"NC(=O)c1ccc(F)c2c1CC(N(CCCc1c[nH]c3ccc(F)cc13)C1CCC1)CO2 (single isomer, unassigned; (-)) [Compound 4b, (−)-3-{cyclobutyl[3-(5-fluoro-1H-indol-3-yl)propyl]amino}-8-fluorochromane-5-carboxamide]",Ki,serotonin transporter; [6],1.53 nM
same,5-HT1A Function cAMP (Emax),5-HT1A receptor [3],0%
"NC(=O)c1ccc(F)c2c1CC(N(CCCc1c[nH]c3ccc(F)cc13)CC1CC1)CO2 (single isomer, unassigned; (-)) [Compound 5a, (−)-3-{(cyclopropylmethyl)[3-(5-fluoro-1H-indol-3-yl)propyl]amino}-8-fluorochromane-5-carboxamide]",Ki,serotonin transporter; [6],4.1 nM
same,Emax,[1]; [8],100%
same,5-HT1A Function cAMP (Emax),5-HT1A receptor [3],0%
"NC(=O)c1ccc(F)c2c1CC(N(CCCc1c[nH]c3ccc(F)cc13)C1CCC1)CO2 (centres unmarked) [Compound 4, 3-{cyclobutyl[3-(5-fluoro-1H-indol-3-yl)propyl]amino}-8-fluorochromane-5-carboxamide]",Ki,serotonin transporter; [6],2.6 nM
same,Emax,5-HT1A receptor [3],0%
"NC(=O)c1ccc(F)c2c1CC(N(CCCc1c[nH]c3ccc(F)cc13)CC1CC1)CO2 (centres unmarked) [Compound 5, 3-{(cyclopropylmethyl)[3-(5-fluoro-1H-indol-3-yl)propyl]amino}-8-fluorochromane-5-carboxamide]",Ki,serotonin transporter; [6],3.6 nM
same,Emax,[1]; [8],88.2%
same,Emax,[1]; [5],28.4%
same,Emax,5-HT1A receptor [3],0%
"COc1cccc2c1CC(N(CCCCc1c[nH]c3ccc(F)cc13)C1CCC1)CO2 (centres unmarked) [Compound 36, N-cyclobutyl-N-[4-(5-fluoro-1H-indol-3-yl)butyl]-N-(5-methoxy-3,4-dihydro-2H-chromen-3-yl)amine]",IC50,[1],0.668 µM
same,Emax,[1]; [8],56%
same,EC50,5-HT1A receptor [3],12.3 nM
same,Emax,5-HT1A receptor [3],61%
same,Ki,5-HT1A receptor [2],11.7 nM
"COC(=O)c1ccc(F)c2c1CC(NCCCc1c[nH]c3ccc(F)cc13)CO2 (centres unmarked) [Compound 54, Methyl 8-fluoro-3-{[3-(5-fluoro-1H-indol-3-yl)propyl]amino}chromane-5-carboxylate]",5-HT1A Function GTPγS (Emax),"[1]; maximum stimulatory effect, in brackets after EC50",85%
"O=C(NCc1ccccc1)c1ccc(F)c2c1CC(N(CCCc1c[nH]c3ccc(F)cc13)C1CCC1)CO2 (centres unmarked) [Compound 69, N-benzyl-3-{cyclobutyl[3-(5-fluoro-1H-indol-3-yl)propyl]amino}-8-fluorochromane-5-carboxamide]",Ki,serotonin transporter; [6],15.1 nM
same,inhibition at 1 µM,5-HT1A receptor [2],3%
"NC(=O)c1ccc(F)c2c1CC(N(CCCc1c[nH]c3ccc(F)cc13)Cc1ccccc1)CO2 (centres unmarked) [Compound 74, 3-{benzyl[3-(5-fluoro-1H-indol-3-yl)propyl]amino}-8-fluorochromane-5-carboxamide]",Ki,serotonin transporter; [6],641 nM
same,inhibition at 1 µM,5-HT1A receptor [2],20%
"CNC(=O)c1ccc(F)c2c1CC(NCCc1c[nH]c3ccc(F)cc13)CO2 (centres unmarked) [Compound 84, 8-fluoro-3-{[2-(5-fluoro-1H-indol-3-yl)ethyl]amino}-N-methylchromane-5-carboxamide]",Ki,serotonin transporter; [6],83 nM
same,inhibition at 1 µM,5-HT1A receptor [2],0%
"COc1ccc2[nH]cc(CCCNC3COc4c(F)ccc(C(N)=O)c4C3)c2c1 (centres unmarked) [Compound 104, 8-fluoro-3-{[3-(5-methoxy-1H-indol-3-yl)propyl]amino}chromane-5-carboxamide]",Ki,serotonin transporter; [6],4050 nM
same,Ki,5-HT1A receptor [2],16.7 nM
"NC(=O)c1ccc(F)c2c1CC(NCCCc1c[nH]c3c(Cl)cccc13)CO2 (centres unmarked) [Compound 109, 3-{[3-(7-chloro-1H-indol-3-yl)propyl]amino}-8-fluorochromane-5-carboxamide]",Ki,serotonin transporter; [6],69 nM
same,Ki,5-HT1A receptor [2],27.7 nM
"NC(=O)c1ccc(F)c2c1OCC(N(CCCc1c[nH]c3ccc(F)cc13)C1CCC1)C2 (centres unmarked) [Compound 122, 3-{cyclobutyl[3-(5-fluoro-1H-indol-3-yl)propyl]amino}-5-fluorochromane-8-carboxamide]",Ki,serotonin transporter; [6],71 nM
same,inhibition at 1 µM,5-HT1A receptor [2],0%
"NC(=O)c1ccc(F)c2c1OCC(N(CCCCc1c[nH]c3ccc(F)cc13)C1CCC1)C2 (centres unmarked) [Compound 126, 3-{cyclobutyl[4-(5-fluoro-1H-indol-3-yl)butyl]amino}-5-fluorochromane-8-carboxamide]",Ki,serotonin transporter; [6],17.1 nM
same,inhibition at 1 µM,5-HT1A receptor [2],0%
"NC(=O)c1ccc(F)c2c1OCC(N(CCCc1c[nH]c3c(F)cc(F)cc13)C1CCC1)C2 (centres unmarked) [Compound 131, 3-{cyclobutyl[3-(5,7-difluoro-1H-indol-3-yl)propyl]amino}-5-fluorochromane-8-carboxamide]",Ki,serotonin transporter; [6],162 nM
same,inhibition at 1 µM,5-HT1A receptor [2],49%
"NC(=O)c1ccc(F)c2c1CC(NCCCn1ccc3ccccc31)CO2 (centres unmarked) [Compound 184, 8-Fluoro-3-{[3-(1H-indol-1-yl)propyl]amino}chromane-5-carboxamide]",Ki,serotonin transporter; [6],611 nM
same,inhibition at 1 µM,5-HT1A receptor [2],46%
"CCCN(CCCCn1ccc2cccc(F)c21)C1COc2c(F)ccc(C(N)=O)c2C1 (centres unmarked) [Compound 190, 8-Fluoro-3-[[4-(7-fluoro-1H-indol-1-yl)butyl](propyl)amino]chromane-5-carboxamide]",IC50,[1],3.6 µM
same,Emax,[1]; [8],84%
same,EC50,5-HT1A receptor [3],321 nM
same,Emax,5-HT1A receptor [3],59%
same,Ki,5-HT1A receptor [2],16.6 nM
"NC(=O)c1ccc(F)c2c1CC(N(CCCCn1ccc3c(F)cccc31)C1CCC1)CO2 (centres unmarked) [Compound 204, 3-{Cyclobutyl[4-(4-fluoro-1H-indol-1-yl)butyl]amino}-8-fluorochromane-5-carboxamide]",Ki,serotonin transporter; [6],288 nM
same,Ki,5-HT1A receptor [2],17.4 nM
